The numbers were not newly measured in publication PMC8513935, which cites them from elsewhere.

Structures are written as SMILES.

Data set [1] can be described thus: experimental, compiled by the authors from the literature (the ESI cites the sources).
A short description of data set [2]: derived by the authors as gas->solvent minus gas->water (a hypothetical dry solvent; the ESI), not a two-phase measurement.

As for `C1CCCCC1`, the log K of transfer, gas to solvent is 2.79 log10 K in data set [1] (1,2-Dichloroethane, 25 C); 2.83 log10 K in data set [1] (2-Methylpropan-1-ol, 25 C); 2.69 log10 K in data set [1] (2-Methylpropan-2-ol, 25 C); 2.97 log10 K in data set [1] (Benzene, 25 C); 2.73 log10 K in data set [1] (Butan-1-ol, 25 C); 2.67 log10 K in data set [1] (Butan-2-ol, 25 C). The log K of transfer, gas to solvent was 2.75 log10 K in data set [1] (Butanone, 25 C); 2.67 log10 K in data set [1] (Butyronitrile, 25 C); 3.22 log10 K in data set [1] (CCl4, 25 C); 3.23 log10 K in data set [1] (Chlorobenzene, 25 C); 3.26 log10 K in data set [1] (Chloroform, 25 C); 3.25 log10 K in data set [1] (Cyclohexane, 25 C). Further, the log K of transfer, gas to solvent in data set [1] (Cyclohexanone, 25 C) was 2.81 log10 K; in data set [1] (Decan-1-ol, 25 C), 2.5 log10 K; in data set [1] (Di-n-butyl ether, 25 C) it was 3.01 log10 K; in data set [1] (Dichloromethane, 25 C), 3.01 log10 K; in data set [1] (Diethyl Ether, 25 C), 3.07 log10 K; in data set [1] (Ethanol, 25 C), 2.55 log10 K. Besides, the log K of transfer, gas to solvent in data set [1] (Heptan-1-ol, 25 C) is 2.73 log10 K; in data set [1] (Hexadecane, 25 C), 2.96 log10 K; in data set [1] (Hexan-1-ol, 25 C) it was 2.75 log10 K; in data set [1] (Hexane, 25 C) it was 3.1 log10 K; in data set [1] (Methanol, 25 C), 2.43 log10 K; in data set [1] (Octan-1-ol, 25 C), 2.71 log10 K. The log K of transfer, gas to solvent in data set [1] (Pentan-1-ol, 25 C) is 2.72 log10 K; in data set [1] (Perfluoroalkane, 25 C), 1.96 log10 K; in data set [1] (Propan-1-ol, 25 C), 2.55 log10 K; in data set [1] (Propan-2-ol, 25 C) it was 2.53 log10 K; in data set [1] (Propanone, 25 C), 2.6 log10 K; in data set [1] (Propionitrile, 25 C) it was 2.51 log10 K. Moreover, the log K of transfer, gas to solvent in data set [1] (Tetrahydrofuran, 25 C) was 3.13 log10 K; in data set [1] (Water, 25 C), -0.9 log10 K. In addition, the log K of transfer, water to solvent in data set [2] (1,2-Dichloroethane, 25 C) was 3.69 log10 K; in data set [2] (2-Methylpropan-1-ol, 25 C), 3.73 log10 K; in data set [2] (2-Methylpropan-2-ol, 25 C), 3.59 log10 K; in data set [2] (Acetone, 25 C) it was 3.5 log10 K; in data set [2] (Benzene, 25 C), 3.87 log10 K; in data set [2] (Butan-1-ol, 25 C), 3.63 log10 K. Moreover, the log K of transfer, water to solvent in data set [2] (Butan-2-ol, 25 C) is 3.57 log10 K; in data set [2] (Butanone, 25 C), 3.65 log10 K; in data set [2] (Butyronitrile, 25 C), 3.57 log10 K; in data set [2] (CCl4, 25 C) it was 4.12 log10 K; in data set [2] (Chlorobenzene, 25 C) it was 4.13 log10 K; in data set [2] (Chloroform, 25 C), 4.16 log10 K. Also, the log K of transfer, water to solvent is 4.15 log10 K in data set [2] (Cyclohexane, 25 C); 3.71 log10 K in data set [2] (Cyclohexanone, 25 C); 3.4 log10 K in data set [2] (Decan-1-ol, 25 C); 3.91 log10 K in data set [2] (Di-n-butyl ether, 25 C); 3.91 log10 K in data set [2] (Dichloromethane, 25 C); 3.97 log10 K in data set [2] (Diethyl Ether, 25 C). The log K of transfer, water to solvent in data set [2] (Ethanol, 25 C) is 3.45 log10 K; in data set [2] (Heptan-1-ol, 25 C) it was 3.63 log10 K; in data set [2] (Hexadecane, 25 C) it was 3.86 log10 K; in data set [2] (Hexan-1-ol, 25 C) it was 3.65 log10 K; in data set [2] (Hexane, 25 C), 4 log10 K; in data set [2] (Methanol, 25 C), 3.33 log10 K. Further, the log K of transfer, water to solvent in data set [2] (Octan-1-ol(dry), 25 C) was 3.61 log10 K; in data set [2] (Pentan-1-ol, 25 C), 3.62 log10 K; in data set [2] (Perfluoroalkane, 25 C), 2.86 log10 K; in data set [2] (Propan-1-ol, 25 C), 3.45 log10 K; in data set [2] (Propan-2-ol, 25 C) it was 3.43 log10 K; in data set [2] (Propionitrile, 25 C) it was 3.41 log10 K. In data set [2] (Tetrahydrofuran, 25 C), the log K of transfer, water to solvent was 4.03 log10 K.
Regarding `CC(C)(C)C`, the log K of transfer, gas to solvent is 1.82 log10 K in data set [1] (Hexadecane, 25 C); 2.03 log10 K in data set [1] (Hexane, 25 C); 1.4 log10 K in data set [1] (Methanol, 25 C); -1.84 log10 K in data set [1] (Water, 25 C). Further, the log K of transfer, water to solvent was 3.66 log10 K in data set [2] (Hexadecane, 25 C); 3.87 log10 K in data set [2] (Hexane, 25 C); 3.24 log10 K in data set [2] (Methanol, 25 C).
Consider `Fc1ccccc1`, for which the log K of transfer, gas to solvent in data set [1] (CCl4, 25 C) was 2.67 log10 K; in data set [1] (Chloroform, 25 C), 3.44 log10 K; in data set [1] (Cyclohexane, 25 C), 2.81 log10 K; in data set [1] (Hexadecane, 25 C) it was 2.79 log10 K; in data set [1] (Hexane, 25 C), 3.04 log10 K; in data set [1] (Tetrahydrofuran, 25 C), 3.62 log10 K. For the same compound, the log K of transfer, gas to solvent in data set [1] (Water, 25 C) is 0.59 log10 K. For the same compound, the log K of transfer, water to solvent in data set [2] (CCl4, 25 C) was 2.08 log10 K; in data set [2] (Chloroform, 25 C), 2.85 log10 K; in data set [2] (Cyclohexane, 25 C), 2.22 log10 K; in data set [2] (Hexadecane, 25 C), 2.2 log10 K; in data set [2] (Hexane, 25 C) it was 2.45 log10 K; in data set [2] (Tetrahydrofuran, 25 C), 3.03 log10 K.
`CCCCCCc1ccccc1`: the log K of transfer, gas to solvent in data set [1] (Hexadecane, 25 C) is 5.72 log10 K; in data set [1] (Methanol, 25 C), 5.23 log10 K; in data set [1] (Water, 25 C), 0.03 log10 K. The log K of transfer, water to solvent is 5.69 log10 K in data set [2] (Hexadecane, 25 C) and 5.2 log10 K in data set [2] (Methanol, 25 C).
Consider `CCCCCF`, for which the log K of transfer, gas to solvent in data set [1] (Hexadecane, 25 C) is 2.44 log10 K; in data set [1] (Water, 25 C), -0.21 log10 K. Besides, the log K of transfer, water to solvent in data set [2] (Hexadecane, 25 C) is 2.65 log10 K.
On to `CCSCC`, for which the log K of transfer, gas to solvent is 4.69 log10 K in data set [1] (Chloroform, 25 C); 3.02 log10 K in data set [1] (Hexadecane, 25 C); 1.07 log10 K in data set [1] (Water, 25 C). For the same compound, the log K of transfer, water to solvent in data set [2] (Chloroform, 25 C) is 3.62 log10 K.
For `c1ccncc1`, the log K of transfer, gas to solvent in data set [1] (1,2-Dichloroethane, 25 C) is 4.16 log10 K; in data set [1] (2-Methylpropan-1-ol, 25 C) it was 4.16 log10 K; in data set [1] (2-Methylpropan-2-ol, 25 C) it was 3.96 log10 K; in data set [1] (Benzene, 25 C), 3.87 log10 K; in data set [1] (Butan-1-ol, 25 C), 3.95 log10 K; in data set [1] (Butan-2-ol, 25 C) it was 4.13 log10 K. Besides, the log K of transfer, gas to solvent in data set [1] (Butanone, 25 C) was 3.94 log10 K; in data set [1] (CCl4, 25 C) it was 3.77 log10 K; in data set [1] (Chloroform, 25 C), 4.73 log10 K; in data set [1] (Cyclohexane, 25 C) it was 3.03 log10 K; in data set [1] (Ethanol, 25 C), 4.18 log10 K; in data set [1] (Hexadecane, 25 C), 3.02 log10 K. Besides, the log K of transfer, gas to solvent in data set [1] (Hexane, 25 C) is 3.07 log10 K; in data set [1] (Propan-1-ol, 25 C), 3.99 log10 K; in data set [1] (Propan-2-ol, 25 C) it was 3.86 log10 K; in data set [1] (Propanone, 25 C), 3.97 log10 K; in data set [1] (Toluene, 25 C) it was 3.76 log10 K; in data set [1] (Water, 25 C), 3.44 log10 K. Also, the log K of transfer, water to solvent in data set [2] (1,2-Dichloroethane, 25 C) was 0.72 log10 K; in data set [2] (2-Methylpropan-1-ol, 25 C), 0.72 log10 K; in data set [2] (2-Methylpropan-2-ol, 25 C), 0.52 log10 K; in data set [2] (Acetone, 25 C) it was 0.53 log10 K; in data set [2] (Benzene, 25 C) it was 0.43 log10 K; in data set [2] (Butan-1-ol, 25 C), 0.51 log10 K. Moreover, the log K of transfer, water to solvent in data set [2] (Butan-2-ol, 25 C) is 0.69 log10 K; in data set [2] (Butanone, 25 C) it was 0.5 log10 K; in data set [2] (CCl4, 25 C), 0.33 log10 K; in data set [2] (Chloroform, 25 C), 1.29 log10 K; in data set [2] (Cyclohexane, 25 C) it was -0.41 log10 K; in data set [2] (Ethanol, 25 C) it was 0.74 log10 K. Further, the log K of transfer, water to solvent was -0.418 log10 K in data set [2] (Hexadecane, 25 C); -0.37 log10 K in data set [2] (Hexane, 25 C); 0.55 log10 K in data set [2] (Propan-1-ol, 25 C); 0.42 log10 K in data set [2] (Propan-2-ol, 25 C); 0.32 log10 K in data set [2] (Toluene, 25 C).
For `CN(C)C=O`, the log K of transfer, gas to solvent was 4.7 log10 K in data set [1] (Butanone, 25 C); 3.17 log10 K in data set [1] (Hexadecane, 25 C); 4.38 log10 K in data set [1] (Octan-1-ol, 25 C); 4.71 log10 K in data set [1] (Propanone, 25 C); 4.39 log10 K in data set [1] (Tetrahydrofuran, 25 C); 5.73 log10 K in data set [1] (Water, 25 C). In addition, the log K of transfer, water to solvent was -1.02 log10 K in data set [2] (Acetone, 25 C); -1.03 log10 K in data set [2] (Butanone, 25 C); -2.56 log10 K in data set [2] (Hexadecane, 25 C); -1.35 log10 K in data set [2] (Octan-1-ol(dry), 25 C); -1.34 log10 K in data set [2] (Tetrahydrofuran, 25 C).
For the compound `Cc1cncc(C)c1`, the log K of transfer, gas to solvent in data set [1] (Hexadecane, 25 C) is 4.21 log10 K; in data set [1] (Water, 25 C), 3.55 log10 K. In addition, the log K of transfer, water to solvent in data set [2] (Hexadecane, 25 C) is 0.664 log10 K.
